Measurements published in the NIST ThermoML archive (doi:10.1021/je500358r).
± gives the expanded uncertainty stated by the source.

What was measured:
[1] = for vapor or sublimation pressure: Liquid, Gas chromatography
[2] = molar enthalpy of vaporization or sublimation; settings: 298 K; Liquid; DSC
[3] = Molar enthalpy of transition or fusion; settings: DSC

Compound | vapor or sublimation pressure ([1]; 283.15 K) | vapor or sublimation pressure ([1]; 288.15 K) | vapor or sublimation pressure ([1]; 293.15 K) | vapor or sublimation pressure ([1]; 298.15 K) | vapor or sublimation pressure ([1]; 303.15 K) | vapor or sublimation pressure ([1]; 308.15 K) | vapor or sublimation pressure ([1]; 313.15 K) | molar enthalpy [2] | Normal melting temperature ([1]; Crystal 1, DTA) | Triple point temperature ([1]; Crystal 2, DTA) | Molar enthalpy of transition or fusion ([3]; Crystal 1) | Molar enthalpy of transition or fusion ([3]; Crystal 2)
CCCN(CCC)CCC [tripropylamine] | 0.199 ± 0.02 kPa | 0.278 ± 0.028 kPa | 0.384 ± 0.038 kPa | 0.524 ± 0.052 kPa | 0.709 ± 0.071 kPa | 0.949 ± 0.095 kPa | 1.259 ± 0.13 kPa | – | – | – | – | –
C#CCN(C)[C@H](C)Cc1ccccc1 [(R)-N-methyl-N-(1-phenylpropan-2-yl)prop-2-yn-1-amine] | 0.0006 ± 0.0001 kPa | 0.001 ± 0.0001 kPa | 0.0016 ± 0.0002 kPa | 0.0025 ± 0.0003 kPa | 0.0038 ± 0.0004 kPa | 0.0058 ± 0.0006 kPa | 0.0086 ± 0.0009 kPa | 15.4 ± 1.12 kcal/mol | – | – | – | –
CCCCCCCCCCCCCCCCN(C)C [1-hexadecanamine, N,N-dimethyl-] | 2e-06 ± 1e-06 kPa | 3e-06 ± 1e-06 kPa | 6e-06 ± 1e-06 kPa | 1.1e-05 ± 1e-06 kPa | 1.9e-05 ± 2e-06 kPa | 3.2e-05 ± 3e-06 kPa | 5.5e-05 ± 6e-06 kPa | 20.3 ± 2.87 kcal/mol | – | – | – | –
CCN(CCCc1ccccc1)CCCc1ccccc1 [N-ethyl-3-phenyl-N-(3-phenylpropyl)propan-1-amine] | 2e-07 ± 1e-07 kPa | 4e-07 ± 1e-07 kPa | 7e-07 ± 1e-07 kPa | 1.4e-06 ± 2e-07 kPa | 2.5e-06 ± 3e-07 kPa | 4.5e-06 ± 5e-07 kPa | 7.8e-06 ± 8e-07 kPa | 21.3 ± 0.669 kcal/mol | – | – | – | –
c1ccc(CN(Cc2ccccc2)Cc2ccccc2)cc1 [benzenemethanamine, N,N-bis(phenylmethyl)-] | 7e-08 ± 2e-08 kPa | 1.4e-07 ± 2e-08 kPa | 2.7e-07 ± 4e-08 kPa | 5e-07 ± 6e-08 kPa | 9.3e-07 ± 1e-07 kPa | 1.7e-06 ± 1.8e-07 kPa | 3.03e-06 ± 3.1e-07 kPa | 22.1 ± 0.837 kcal/mol | 92.5 ± 0.4 °C | 342.5 ± 0.9 K | 5.5 ± 0.127 kcal/mol | 0.264 ± 0.0502 kcal/mol
C[C@@H](Cc1ccccc1)N(C)Cc1ccccc1 [(S)-N-benzyl-N-methyl-1-phenylpropan-2-amine] | 8e-06 ± 1e-06 kPa | 1.4e-05 ± 2e-06 kPa | 2.4e-05 ± 2e-06 kPa | 4e-05 ± 4e-06 kPa | 6.7e-05 ± 7e-06 kPa | 0.000111 ± 1.1e-05 kPa | 0.000179 ± 1.8e-05 kPa | 18.5 ± 0.55 kcal/mol | – | – | – | –
CCCCN(CCCC)CCCC [tributylamine] | 0.008 ± 0.001 kPa | 0.013 ± 0.001 kPa | 0.019 ± 0.002 kPa | 0.028 ± 0.003 kPa | 0.042 ± 0.004 kPa | 0.06 ± 0.006 kPa | 0.087 ± 0.009 kPa | 13.9 ± 0.98 kcal/mol | – | – | – | –

Continued, values first:

vapor or sublimation pressure ([1]; 283.15 K) | vapor or sublimation pressure ([1]; 288.15 K) | vapor or sublimation pressure ([1]; 293.15 K) | vapor or sublimation pressure ([1]; 298.15 K) | vapor or sublimation pressure ([1]; 303.15 K) | vapor or sublimation pressure ([1]; 308.15 K) | vapor or sublimation pressure ([1]; 313.15 K) | molar enthalpy [2] | Normal melting temperature ([1]; Crystal 1, DTA) | Triple point temperature ([1]; Crystal 2, DTA) | Molar enthalpy of transition or fusion ([3]; Crystal 1) | Molar enthalpy of transition or fusion ([3]; Crystal 2) | Compound
0.037 ± 0.004 kPa | 0.055 ± 0.006 kPa | 0.079 ± 0.008 kPa | 0.113 ± 0.011 kPa | 0.159 ± 0.016 kPa | 0.222 ± 0.022 kPa | 0.306 ± 0.031 kPa | 12.5 ± 1.1 kcal/mol | – | – | – | – | CC(C)CN(CC(C)C)CC(C)C [triisobutylamine]
1.7e-05 ± 2e-06 kPa | 3.1e-05 ± 3e-06 kPa | 5.4e-05 ± 5e-06 kPa | 9.2e-05 ± 9e-06 kPa | 0.000153 ± 1.5e-05 kPa | 0.000253 ± 2.5e-05 kPa | 0.00041 ± 4.1e-05 kPa | 18.5 ± 1 kcal/mol | – | – | – | – | CCCCCCCCCCCCCCN(C)C [1-tetradecanamine, N,N-dimethyl-]
2e-08 ± 1e-08 kPa | 3e-08 ± 1e-08 kPa | 7e-08 ± 2e-08 kPa | 1.4e-07 ± 2e-08 kPa | 2.8e-07 ± 4e-08 kPa | 5.3e-07 ± 6e-08 kPa | 1e-06 ± 1.1e-07 kPa | 23.9 ± 0.837 kcal/mol | – | – | – | – | CCCCCCCCN(CCCCCCCC)CCCCCCCC [trioctylamine]
